Test results as given in patent US20260062422A1 (Halda Therapeutics OpCo, Inc., priority 2022, published 2026).

What was measured:
[1] = test system: VCaP cells; assay: Cellular growth inhibition assay for VCaP cells, CellTiter-Glo; assay type: cell-based, human; conditions: 72 hours treatment, CellTiter-Glo 2.0
In short: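 GI50 values come from four-parameter curve fits of luminescence data normalized to a zero baseline. Compound, in medium with 0.5% DMSO, was added one day after plating and left for 72 h before CellTiter-Glo 2.0 addition.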

[2] = test system: T-Rex 293 cell line SC3 cells having increased expression of androgen receptor protein due to exposure to doxycycline; assay: Cellular growth inhibition, T-Rex 293 SC3 cells with doxycycline (androgen receptor induced), CellTiter-Glo; assay type: cell-based; conditions: T-Rex 293 SC3 cells with 10 ng/mL doxycycline (increased androgen receptor expression)
In short: (§1)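 Luminescence read-out (CellTiter-Glo 2.0) after 72 h compound exposure; GI50 by four-parameter nonlinear regression, baseline set at zero luminescence. SC3 cells, a doxycycline-inducible wild-type AR clone of T-Rex 293, were cultured ±10 ng/mL doxycycline in charcoal-dextran FBS medium.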

[3] = test system: T47D cells; assay: Cellular growth inhibition assay for T47D cells, CellTiter-Glo; assay type: cell-based, human; conditions: 72 hours treatment, CellTiter-Glo 2.0 cell viability
In short: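 Cells are plated at 3000/well and allowed 24 h before treatment. Test compound in medium containing 0.5% DMSO is then added, with DMSO-only wells as negative control, and plates are incubated 72 h at 37 °C. ATP luminescence (CellTiter-Glo 2.0) is then fitted to four parameters to derive GI50.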

[4] = test system: T-Rex 293 cell line SC3 cells lacking increased expression of androgen receptor protein; assay: Cellular growth inhibition, T-Rex 293 SC3 cells without doxycycline, CellTiter-Glo; assay type: cell-based; conditions: T-Rex 293 SC3 cells not exposed to doxycycline, CellTiter-Glo 2.0
In short: as §1

Row | Compound | GI50 [1] | GI50 ([2]; 72 hours) | GI50 [3] | GI50 ([4]; 72 hours) | GI50 ([3]; Homo sapiens, T47D, 72 h) | GI50 ([1]; Homo sapiens, VCaP, 72 h) | GI50 ([2]; 72 h) | GI50 ([4]; 72 h)
1 | Cc1sc2c(c1C)C(c1ccc(C3CC(C4CCN(c5ncc(C(=O)N[C@H]6C(C)(C)[C@H](Oc7ccc(C#N)c(Cl)c7)C6(C)C)cn5)CC4)C3)cc1)=NC(C)c1nnc(C)n1-2 (stereo partly shown) [Compound I-468] | < 500 nM | < 500 nM | < 500 nM | > 3000 nM |  |  |  | 
2 | Cc1sc2c(c1C)C(c1ccc(C3CC(C4CCN(c5cnc(C(=O)N[C@H]6C(C)(C)[C@H](Oc7ccc(C#N)c(Cl)c7)C6(C)C)cn5)CC4)C3)cc1)=NC(C)c1nnc(C)n1-2 (stereo partly shown) [Compound I-469] | < 500 nM | < 500 nM |  | 500 to 1500 nM | < 500 nM |  |  | 
3 | Cc1sc2c(c1C)C(c1ccc(C3CC(C4CCN(c5cnc(C(=O)N[C@H]6C(C)(C)[C@H](Oc7ccc(C#N)c(Cl)c7)C6(C)C)cn5)CC4)C3)cc1)=NC(C)c1nnc(C)n1-2 (stereo partly shown) [Compound I-470] | < 500 nM | < 500 nM | 500 to 1500 nM | > 3000 nM |  |  |  | 
4 | Cc1sc2c(c1C)C(c1ccc(C3CC(C4CCN(c5cnc(C(=O)N[C@H]6C(C)(C)[C@H](Oc7ccc(C#N)c(Cl)c7)C6(C)C)cn5)CC4)C3)cc1)=NC(C)c1nnc(C)n1-2 (stereo partly shown) [Compound I-471] | > 3000 nM | 500 to 1500 nM | < 500 nM | > 3000 nM |  |  |  | 
5 | Cc1sc2c(c1C)C(c1ccc(C3CC(C4CCN(c5cnc(C(=O)N[C@H]6C(C)(C)[C@H](Oc7ccc(C#N)c(Cl)c7)C6(C)C)cn5)CC4)C3)cc1)=NC(C)c1nnc(C)n1-2 (stereo partly shown) [Compound I-472] | > 3000 nM | > 3000 nM | < 500 nM | > 3000 nM |  |  |  | 
6 | Cc1sc2c(c1C)C(c1ccc(N3CC(C4CCCN(c5ncc(C(=O)N[C@H]6C(C)(C)[C@H](Oc7ccc(C#N)c(Cl)c7)C6(C)C)cn5)C4)C3)cc1)=N[C@@H](C)c1nnc(C)n1-2 (stereo partly shown) [Compound I-473] |  |  | > 3000 nM | > 3000 nM |  | > 3000 nM | < 500 nM | 
7 | Cc1sc2c(c1C)C(c1ccc(N3CC(C4CCCN(c5ncc(C(=O)N[C@H]6C(C)(C)[C@H](Oc7ccc(C#N)c(Cl)c7)C6(C)C)cn5)C4)C3)cc1)=N[C@@H](C)c1nnc(C)n1-2 (stereo partly shown) [Compound I-474] | > 3000 nM | < 500 nM | < 500 nM | 500 to 1500 nM |  |  |  | 
8 | Cc1sc2c(c1C)C(c1ccc(C3CC(N4CCN(c5ncc(C(=O)N[C@H]6C(C)(C)[C@H](Oc7ccc(C#N)c(Cl)c7)C6(C)C)cn5)CC4)C3)cc1)=N[C@@H](Cc1ncco1)c1nnc(C)n1-2 (stereo partly shown) [Compound I-475] |  |  |  |  | < 500 nM | < 500 nM | < 500 nM | 500 to 1500 nM
9 | Cc1sc2c(c1C)C(c1ccc(C3CC(CC4CN(c5ncc(C(=O)N[C@H]6C(C)(C)[C@H](Oc7ccc(C#N)c(Cl)c7)C6(C)C)cn5)C4)C3)cc1)=NC(Cc1ncco1)c1nnc(C)n1-2 (stereo partly shown) [Compound I-476] |  |  |  |  | < 500 nM | < 500 nM | < 500 nM | < 500 nM
10 | Cc1sc2c(c1C)C(c1ccc(C3CC(CC4CN(c5ncc(C(=O)N[C@H]6C(C)(C)[C@H](Oc7ccc(C#N)c(Cl)c7)C6(C)C)cn5)C4)C3)cc1)=NC(Cc1ncco1)c1nnc(C)n1-2 (stereo partly shown) [Compound I-477] | < 500 nM | < 500 nM | < 500 nM | < 500 nM |  |  |  | 
11 | Cc1sc2c(c1C)C(c1ccc(N3CCC(CCc4cnc(C(=O)N[C@H]5C(C)(C)[C@H](Oc6ccc(C#N)c(Cl)c6)C5(C)C)cn4)CC3)cc1)=N[C@@H](Cc1ncco1)c1nnc(C)n1-2 [Compound I-478] |  |  |  |  | 500 to 1500 nM | < 500 nM | < 500 nM | 500 to 1500 nM
12 | Cc1sc2c(c1C)C(c1ccc(C(C)(C)CN3CC4(CCCN(c5ncc(C(=O)NC6C(C)(C)C(Oc7ccc(C#N)c(Cl)c7)C6(C)C)cn5)C4)C3)cc1)=N[C@@H](Cc1ncco1)c1nnc(C)n1-2 (stereo partly shown) [Compound I-479] |  |  |  |  | 500 to 1500 nM | < 500 nM | < 500 nM | 500 to 1500 nM
13 | Cc1sc2c(c1C)C(c1ccc(-c3cc(C4CCN(c5ncc(C(=O)N[C@H]6C(C)(C)[C@H](Oc7ccc(C#N)c(Cl)c7)C6(C)C)cn5)CC4)cs3)cc1)=N[C@@H](Cc1ncco1)c1nnc(C)n1-2 [Compound I-480] |  |  |  |  | > 3000 nM | < 500 nM | < 500 nM | > 3000 nM
